US4594340A, “25,26-dehydro-1α,24R-dihydroxycholecalciferol and 25,26-dehydro-1α,24S-dihydroxycholecalciferol and the epimeric mixture” (Hoffmann-La Roche Inc., priority 1984, dated 1986)

Key:
[1] = system: HL-60 cells; assay: Differentiation of HL-60 cells by nitroblue tetrazolium (NBT) reduction; type: cell-based, human (patient)
Protocol: (§1) Cultures of HL-60 cells were established in the absence (control) or presence of various concentrations of the test compound. […] Proliferation was assessed by directly enumerating the increased number of tumor cells resulting from incubation. Viability was determined by dye exclusion technique to learn whether any of the compounds were lethal to cultured HL-60 cells. Cellular differentiation was evaluated by determining the number of cells which had acquired the enzymes necessary to support a respiratory burst and the functional ability to phagocytose (bind/internalize) particulate material from their environment; both activities being characteristic of mature macrophages and granulocytes,
(§2) Experimental compounds were dissolved in sufficient ethanol to yield stock solutions of 1×10^-2 molar. Reduced lighting was employed when working with compounds and stock solutions were stored in the dark at -20° in an argon atmosphere. Compounds were diluted with tissue culture medium and added to flasks containing HL-60 cells to achieve the final concentrations described in each experiment.
(§3) The promyelocytic (HL-60) tumor cell line was derived from a patient with acute promyelocytic leukemia. HL-60 cells were maintained in liquid culture by serial weekly passage in tissue culture medium. In any experiment, three replicate flasks were incubated without compound (control) or in the presence of varying concentrations of compound. […]
Quantitation of differentiated cells was done by the biochemical method of nitroblue tetrazolium (NBT) reduction. Sufficient cells were pooled from replicate cultures, centrifuged at 220×g, washed once with serum-free tissue culture medium, and resuspended to 1×10^6 cells per ml in Ca^++ --Mg^++ -deficient phosphate buffered saline (prepared by supplementing Ca^++ --Mg^++ -free phosphate buffered saline (PBS) to 10% v/v with heat-inactivated fetal bovine serum). Nitroblue tetrazolium was dissolved at 1 mg per ml in Ca^++ --Mg^++ -deficient PBS with gentle heating and mixing. Tetradecanoyl phorbol acetate (TPA) was dissolved at 1 mg per ml in ethanol and stored at -20° C. Just prior to use, a working solution of TPA was prepared by diluting the stock concentration 100-fold with Ca^++ --Mg^++ -deficient PBS. The test was done in 12×75 mm tubes by adding 0.5 ml Ca^++ --Mg^++ -deficient PBS, 1.0 ml of HL-60 cells, 0.5 ml of NBT solution, and 0.02 ml of the working TPA solution. After mixing, the tubes were incubated in a 37° water bath for 25 minutes then transferred to ice. Undifferentiated and differentiated cells present in any sample were determined microscopically by surveying 200-400 cells per sample or by cytofluorograph by surveying greater than 30,000 cells. Cells without pigmented granules (clear cells) were judged to be undifferentiated while those containing greater than 3 blue-black formazan granules were scored as differentiated. […] Results are expressed as the percentage of differentiated cells present in any sample as calculated according to the formula: [formula]

[2] = system: HL-60 cells; assay: Differentiation of HL-60 cells by phagocytosis; type: cell-based, human (patient)
Protocol: as §1
Tissure culture medium used in these experiments was RPM1-1640 supplemented prior to use to 10% v/v with fetal bovine serum (heat inactivated at 56° for 30 minutes), to 130 units per ml with penicillin and 130 μg per ml with streptomycin, and to an additional 1.6 millimolar with L-glutamine.
as §2, §3
Quantitation of differentiated HL-60 cells on a functional basis was done by enumerating the number of cells in any sample which had acquired the ability to phagocytose (bind/internalize) particulate material from their environment, a characteristic of mature macrophages and granulocytes. Sufficient cells were pooled from replicate cultures, centrifuged at 200×g, washed once with serum-free tissue culture medium, and resuspended to 1×10^6 cells per ml in serum-free tissue culture medium. To a 1.0 ml sample in 12×75 mm tubes was added 0.1 ml of a 1:10 dilution from stock of fluorescent microspheres obtained as a gift from Dr. William Dreyer at the California Institute of Technology. Latex beads, yeast cells or red blood cells may also be used in place of fluorescent microsphere in this step. Cells and particle were mixed, incubated for 15 minutes in a 37° water bath, collected in a transfer pipet, and overlayed onto a 5 ml cushion of fetal bovine serum in a 15 ml conical culture tube. After centrifugation at 150×g for 8 minutes, the excess particulate (upper layer) was discarded as was the remainder of the serum cushion leaving only a cell pellet and cell-associated particulate. The resultant pellets were resuspended in 1.0 ml of tissue culture medium containing 10% fetal bovine serum, transferred to a hemacytometer, and evaluated microscopically using both ultraviolet and visible light sources. Undifferentiated and differentiated cells present in any sample were determined microscopically by surveying 200-400 cells per sample. Non-fluorescent cells, identified only by visible light, were judged to be undifferentiated. Generally, differentiated cells were intensely fluorescent clearly indicating extensive phagocytosis of particulate material. Results are expressed as the percentage of differentiated cells present in any sample as calculated according to the formula: [formula]

In the case of `C=C(C)[C@H](O)CC[C@@H](C)[C@H]1CC[C@H]2/C(=C/C=C3/C[C@@H](O)C[C@H](O)C3=C)CCC[C@]12C` [25,26-dehydro-1α,24R-dihydroxycholecalciferol], the “induction of cellular differentiation (NBT reduction)” value ([1]; 5, 15, 45 or 90×10^-9 molar, all incubation times) is reported as “increasing proportions of differentiated cells at all incubation times”, the “% diff. (NBT reduction)” value ([1]; 5 × 10^-9 molar, day 3) is reported as 5% and the “diff. cells / total (NBT reduction)” value ([1]; 5 × 10^-9 molar, day 3) is reported as 2443/44545. The “% diff. (NBT reduction)” value ([1]; 5 × 10^-9 molar, day 4) was 8%, the “diff. cells / total (NBT reduction)” value ([1]; 5 × 10^-9 molar, day 4) was 3401/42923 and the “% diff. (NBT reduction)” value ([1]; 5 × 10^-9 molar, day 6) was 7%. For the same compound, the “diff. cells / total (NBT reduction)” value ([1]; 5 × 10^-9 molar, day 6) was 3179/47638, the “% diff. (NBT reduction)” value ([1]; 15 × 10^-9 molar, day 3) was 22% and the “diff. cells / total (NBT reduction)” value ([1]; 15 × 10^-9 molar, day 3) was 8971/40398. For the same compound, the “% diff. (NBT reduction)” value ([1]; 15 × 10^-9 molar, day 4) was 23%, the “diff. cells / total (NBT reduction)” value ([1]; 15 × 10^-9 molar, day 4) was 9489/40666 and the “% diff. (NBT reduction)” value ([1]; 15 × 10^-9 molar, day 6) was 17%. The “diff. cells / total (NBT reduction)” value ([1]; 15 × 10^-9 molar, day 6) was 8167/47032, the “% diff. (NBT reduction)” value ([1]; 45 × 10^-9 molar, day 3) was 49% and the “diff. cells / total (NBT reduction)” value ([1]; 45 × 10^-9 molar, day 3) was 14932/30509. The “% diff. (NBT reduction)” value ([1]; 45 × 10^-9 molar, day 4) was 60%, the “diff. cells / total (NBT reduction)” value ([1]; 45 × 10^-9 molar, day 4) was 20003/33311 and the “% diff. (NBT reduction)” value ([1]; 45 × 10^-9 molar, day 6) was 63%. The “diff. cells / total (NBT reduction)” value ([1]; 45 × 10^-9 molar, day 6) was 22787/36263, the “% diff. (NBT reduction)” value ([1]; 90 × 10^-9 molar, day 3) was 62% and the “diff. cells / total (NBT reduction)” value ([1]; 90 × 10^-9 molar, day 3) was 29458/47866. For the same compound, the “% diff. (NBT reduction)” value ([1]; 90 × 10^-9 molar, day 4) was 73%, the “diff. cells / total (NBT reduction)” value ([1]; 90 × 10^-9 molar, day 4) was 30230/41142 and the “% diff. (NBT reduction)” value ([1]; 90 × 10^-9 molar, day 6) was 79%. For the same compound, the “diff. cells / total (NBT reduction)” value ([1]; 90 × 10^-9 molar, day 6) was 35708/45388, the EC50 ([1]; Homo sapiens, 96 h, HL-60 cells, NBT test, read-out: HL-60 Test Differentiation NBT Test ED50) was 30 nM and the “induction of cellular differentiation” value ([1]; compared with 1α,25-dihydroxycholecalciferol) was “induced cellular differentiation in a dose dependent fashion”. For the same compound, the “potency relative to 1α,25-dihydroxycholecalciferol (cellular differentiation)” value ([1]; of that of 1α,25-dihydroxycholecalciferol) was 40%, the “% diff. (Phagocytosis)” value ([2]; 5 × 10^-9 molar, day 3) was 7% and the “diff. cells / total (Phagocytosis)” value ([2]; 5 × 10^-9 molar, day 3) was 24/329. For the same compound, the “% diff. (Phagocytosis)” value ([2]; 5 × 10^-9 molar, day 4) was 10%, the “diff. cells / total (Phagocytosis)” value ([2]; 5 × 10^-9 molar, day 4) was 22/223 and the “% diff. (Phagocytosis)” value ([2]; 5 × 10^-9 molar, day 6) was 16%. The “diff. cells / total (Phagocytosis)” value ([2]; 5 × 10^-9 molar, day 6) was 45/290, the “% diff. (Phagocytosis)” value ([2]; 15 × 10^-9 molar, day 3) was 24% and the “diff. cells / total (Phagocytosis)” value ([2]; 15 × 10^-9 molar, day 3) was 76/324. The “% diff. (Phagocytosis)” value ([2]; 15 × 10^-9 molar, day 4) was 29%, the “diff. cells / total (Phagocytosis)” value ([2]; 15 × 10^-9 molar, day 4) was 96/332 and the “% diff. (Phagocytosis)” value ([2]; 15 × 10^-9 molar, day 6) was 25%. For the same compound, the “diff. cells / total (Phagocytosis)” value ([2]; 15 × 10^-9 molar, day 6) was 83/333, the “% diff. (Phagocytosis)” value ([2]; 45 × 10^-9 molar, day 3) was 53% and the “diff. cells / total (Phagocytosis)” value ([2]; 45 × 10^-9 molar, day 3) was 174/329. The “% diff. (Phagocytosis)” value ([2]; 45 × 10^-9 molar, day 4) was 70%, the “diff. cells / total (Phagocytosis)” value ([2]; 45 × 10^-9 molar, day 4) was 206/296 and the “% diff. (Phagocytosis)” value ([2]; 45 × 10^-9 molar, day 6) was 79%. For the same compound, the “diff. cells / total (Phagocytosis)” value ([2]; 45 × 10^-9 molar, day 6) was 176/223, the “% diff. (Phagocytosis)” value ([2]; 90 × 10^-9 molar, day 3) was 69% and the “diff. cells / total (Phagocytosis)” value ([2]; 90 × 10^-9 molar, day 3) was 181/261. For the same compound, the “% diff. (Phagocytosis)” value ([2]; 90 × 10^-9 molar, day 4) was 86%, the “diff. cells / total (Phagocytosis)” value ([2]; 90 × 10^-9 molar, day 4) was 219/255 and the “% diff. (Phagocytosis)” value ([2]; 90 × 10^-9 molar, day 6) was 96%. For the same compound, the “diff. cells / total (Phagocytosis)” value ([2]; 90 × 10^-9 molar, day 6) was 200/218 and the “cells capable of phagocytosis” value ([2]; compared with control cultures) was “dose-related increase in the proportion of cells capable of phagocytosis”.
